Results as given in patent US7067656B2, “Sulfamoyl compounds and agricultural and horticultural fungicides” (Nissan Chemical Industries, Ltd., priority 1997, dated 2006).

Row | SMILES | melting point [°C]
1 | Cc1c(Cl)c2ccccc2n1S(=O)(=O)c1ncn(S(=O)(=O)N(C)C)n1 [1-33(a), 1-(N,N-dimethylsulfamoyl)-3-(2-methyl-3-chloroindol-1-yl)sulfonyl-1,2,4-triazole] | 120 to 122
2 | CN(C)S(=O)(=O)n1cnc(S(=O)(=O)n2nc(Cl)c3ccccc32)n1 [7-5(a), 1-(N,N-dimethylsulfamoyl)-3-(3-chloroindazol-1-yl)sulfonyl-1,2,4-triazole] | 164 to 165
3 | Cc1c(Cl)c(-c2ccccc2)nn1S(=O)(=O)c1ncn(S(=O)(=O)N(C)C)n1 [8-11(a), 1-(N,N-dimethylsulfamoyl)-3-(3-phenyl-4-chloro-5-methylpyrazol-1-yl)sulfonyl-1,2,4-triazole] | 125 to 128
4 | CN(C)S(=O)(=O)n1cnc(C(=O)c2ccc(C(F)(F)F)cc2)n1 [11-19(a), 1-dimethylsulfamoyl-3-(4-trifluoromethylbenzoyl)-1,2,4-triazole] | 121 to 122
